Data as given in ChEMBL document CHEMBL1201862, “PubChem BioAssay data set” (2004).
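Method: 48-hour compound exposure of cells in 96-well plates, five concentrations, linear interpolation of endpoints. GI50 = concentration required for 50% inhibition of growth.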 The source made the active and inactive calls. Cut-off read from the data, not from the text of the source: active = GI50 up to about 1.1 µM and inactive = higher.

Assays:
Test in all cases: inhibition of tumour cell growth, NCI panel, 48 h
UO-31 = system: UO-31
HOP-62 = system: HOP-62
SF-539 = system: SF-539
HT-29 = system: HT-29
EKVX = system: EKVX
OVCAR-4 = system: OVCAR-4
UACC-62 = system: UACC-62
UACC-257 = system: UACC-257
U-251 = system: U-251
SK-MEL-28 = system: SK-MEL-28
SNB-19 = system: SNB-19
NCI-H23 = system: NCI-H23
NCI-H522 = system: NCI-H522
LOX IMVI = system: LOX IMVI
OVCAR-5 = system: OVCAR-5
A498 = system: A498

Measured: GI50

COC[C@@H](/N=C/N1CCc2cc(OC)c(OC)cc2[C@@H]1C)C(C)(C)C
inactive: UO-31 > 100 µM | HOP-62 > 100 µM | SF-539 > 100 µM | HT-29 79.8 µM | EKVX > 100 µM | OVCAR-4 > 100 µM | UACC-62 > 100 µM | UACC-257 > 100 µM | U-251 > 100 µM | SK-MEL-28 > 100 µM | SNB-19 > 100 µM | NCI-H23 > 100 µM | NCI-H522 > 100 µM

C=Cc1ccc(C)[n+](C[Si](C)(C)O[Si](C)(C)C[n+]2cc(C=C)ccc2C)c1
inactive: UO-31 > 100 µM | HOP-62 > 100 µM | SF-539 > 100 µM | HT-29 > 100 µM | EKVX 54.2 µM | LOX IMVI > 100 µM | OVCAR-5 > 100 µM | OVCAR-4 > 100 µM | UACC-62 > 100 µM | UACC-257 > 100 µM | U-251 > 100 µM | SK-MEL-28 > 100 µM | SNB-19 > 100 µM | NCI-H23 > 100 µM | NCI-H522 > 100 µM

Cn1cnc([N+](=O)[O-])c1Sc1nc2cccnc2s1
inactive: UO-31 17.1 µM | HOP-62 > 100 µM | SF-539 19.8 µM | HT-29 21.3 µM | EKVX 17.5 µM | LOX IMVI 25.1 µM | OVCAR-5 47.2 µM | OVCAR-4 12.1 µM | UACC-62 17.5 µM | A498 40.9 µM | UACC-257 13.3 µM | U-251 24 µM | SK-MEL-28 16.5 µM | SNB-19 78.9 µM | NCI-H23 > 10 µM

Cc1cc(O)nc(NNC(C#N)c2ccc([N+](=O)[O-])cc2)n1 (centres undefined)
inactive: UO-31 47.5 µM | HOP-62 > 100 µM | SF-539 > 100 µM | HT-29 > 100 µM | LOX IMVI > 100 µM | OVCAR-5 > 100 µM | OVCAR-4 > 100 µM | UACC-62 > 100 µM | UACC-257 > 100 µM | U-251 > 100 µM | SK-MEL-28 > 100 µM | NCI-H23 > 100 µM | NCI-H522 > 100 µM

CN[C@H](C)[C@@H](OC)c1ccccc1
inactive: UO-31 > 100 µM | HOP-62 > 100 µM | HT-29 > 100 µM | EKVX > 100 µM | LOX IMVI > 100 µM | OVCAR-5 > 100 µM | OVCAR-4 > 100 µM | UACC-62 > 100 µM | UACC-257 > 100 µM | U-251 > 100 µM | SK-MEL-28 > 100 µM | SNB-19 > 100 µM

O=c1cccccc1NCCCCNc1cccccc1=O
inactive: UO-31 42 µM | HOP-62 > 100 µM | HT-29 > 100 µM | EKVX > 100 µM | LOX IMVI > 100 µM | OVCAR-5 > 100 µM | OVCAR-4 50.8 µM | UACC-62 72.6 µM | A498 > 100 µM | UACC-257 > 100 µM | U-251 > 100 µM | SK-MEL-28 71.1 µM | SNB-19 61 µM | NCI-H23 67.8 µM | NCI-H522 83.8 µM

Cc1ccccc1N(CCC#N)C1=NN(C(=O)CC(=O)Nc2ccc(Cl)cc2)C(c2ccccc2)C1 (centres undefined)
inactive: UO-31 > 100 µM | HOP-62 > 100 µM | SF-539 > 100 µM | HT-29 > 100 µM | EKVX > 100 µM | OVCAR-5 > 100 µM | OVCAR-4 > 100 µM | UACC-62 > 100 µM | UACC-257 > 100 µM | U-251 > 100 µM | SK-MEL-28 > 100 µM | SNB-19 > 100 µM | NCI-H23 > 100 µM | NCI-H522 > 100 µM

N#CC(C(=N/O)/C(=N/O)C(C#N)c1ccc(Cl)cc1)c1ccc(Cl)cc1 (centres undefined)
inactive: UO-31 > 100 µM | HOP-62 > 100 µM | SF-539 > 100 µM | HT-29 > 100 µM | EKVX > 100 µM | LOX IMVI 82.8 µM | OVCAR-5 > 100 µM | OVCAR-4 > 100 µM | UACC-62 91.4 µM | A498 > 100 µM | UACC-257 > 100 µM | U-251 > 100 µM | SK-MEL-28 > 100 µM | SNB-19 > 100 µM | NCI-H23 92.5 µM

CC(=O)OC1(C#N)CC2OC1C1NC21 (centres undefined)
inactive: UO-31 > 100 µM | HOP-62 > 100 µM | SF-539 > 100 µM | EKVX > 100 µM | LOX IMVI > 100 µM | OVCAR-5 > 100 µM | OVCAR-4 > 100 µM | UACC-62 > 100 µM | A498 > 100 µM | U-251 > 100 µM | SK-MEL-28 > 100 µM | SNB-19 > 100 µM | NCI-H23 > 100 µM | NCI-H522 > 100 µM

CC(=O)C1(O)CCC2(O)C3(O)CC=C4CC(O)CCC4(C)C3CC(OC(=O)c3ccc(O)cc3)C12C.COC1CC(OC2C(C)OC(OC3C(C)OC(OC4CCC5(C)C(=CCC6(O)C5CC(OC(=O)c5ccc(O)cc5)C5(C)C(O)(C(C)=O)CCC65O)C4)CC3OC)CC2OC)OC(C)C1O (centres undefined)
inactive: UO-31 18.3 µM | HOP-62 31.6 µM | SF-539 24.5 µM | HT-29 31.4 µM | EKVX 35.4 µM | LOX IMVI 20.5 µM | OVCAR-5 87.5 µM | UACC-62 23.4 µM | UACC-257 23.4 µM | U-251 22.5 µM | SK-MEL-28 29 µM | SNB-19 33.6 µM | NCI-H23 28.9 µM
